# Where two headings read alike, the source gives them in different places. Where a SMILES comes first, the peptide text is derived from it. Bridges are numbered along the chain shown (N, C = ends). [ ]: non-standard residue; d: D form. The star is where a group is joined. X1 = CC[C@H](C)CCCCC(=O)*; Dab = NCC[C@H](N)C(=O)O
# Columns and labels:
# [1] = system: K. pneumoniae (ATCCBAA-1705); assay: MIC, standard microtiter dilution (CLSI); format: cell-based, Klebsiella pneumoniae; settings: broth microdilution (CLSI), CAMHB, 37 °C, 24 h
# Outline: (§1)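 Broth microdilution per CLSI: overnight cultures diluted in cation-adjusted Mueller Hinton Broth to 10^6 CFU/mL, mixed with 2-fold serial peptide dilutions, incubated 37 °C for 24 h. MIC = lowest peptide concentration inhibiting growth. Three independent assays in triplicate.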
# [2] = system: E. coli (ATCC BAA-2452); assay: Bactericidal kinetic assay; format: cell-based
# Protocol: The time course of bacterial killing was studied by the exposure of overnight grown cultures of MRSA (ATCC BAA-1556) and E. coli (ATCC BAA-2452) to 8a and 8b at the MIC and 4× the MIC in Muller Hinton media. Bacterial cells (2 × 10^6 CFU/mL) were treated with peptides and standard antibiotics and incubated at 37 °C. Aliquots were withdrawn at a 30 min time interval for 4 h and plated on the agar plate to determine the number of viable bacterial colonies. Data were obtained from two independent experiments performed in triplicate.
# [3] = system: K. pneumonia (ATCC BAA-2470); settings: Gram-negative, carbapenem-resistant; CLSI microdilution, CAMHB, 37 °C, 24 h; highest MIC of three independent experiments in triplicate
# Outline: as §1
# [4] = system: E. coli (ATCC BAA-2452); settings: Gram-negative, NDM-1; CLSI microdilution, CAMHB, 37 °C, 24 h; highest MIC of three independent experiments in triplicate
# Outline: as §1
# [5] = system: E. coli (ATCC 25922); settings: for MIC, E. coli (ATCC 25922): broth microdilution (CLSI), CAMHB, 37 °C, 24 h
# Outline: as §1
# [6] = system: P. aeruginosa (ATCC BAA-1744); settings: Gram-negative, resistant strain (marked a; imipenem resistant in Table S3); CLSI microdilution, CAMHB, 37 °C, 24 h; highest MIC of three independent experiments in triplicate
# Outline: as §1
# [7] = system: A. baumannii (ATCC BAA1605); settings: Gram-negative, footnote e ciprofloxacin (MDR in Table S3); CLSI microdilution, CAMHB, 37 °C, 24 h; highest MIC of three independent experiments in triplicate
# Outline: as §1
# [8] = system: P. aeruginosa (ATCC 10145); settings: Gram-negative; CLSI microdilution, CAMHB, 37 °C, 24 h; highest MIC of three independent experiments in triplicate
# Outline: as §1
# [9] = system: Klebsiella pneumonia (ATCC 13883); settings: Gram-negative; CLSI microdilution, CAMHB, 37 °C, 24 h; highest MIC of three independent experiments in triplicate
# Outline: as §1
# [10] = system: P. aeruginosa (ATCC 27883); assay: MIC, standard microtiter dilution (CLSI); format: cell-based, Pseudomonas aeruginosa; settings: broth microdilution (CLSI), CAMHB, 37 °C, 24 h
# Outline: as §1
# [11] = system: E. coli (ATCC BAA-2452); assay: Flow cytometric analysis of PI-stained cells; format: cell-based; settings: MIC and 4 × MIC, 1 h, flow cytometry
# Protocol: The flow cytometric analysis was performed by using MRSA (ATCC BAA-1556) and E. coli (ATCC BAA-2452) cultures grown to the mid log phase in Mueller Hinton broth (HIMEDIA). Before treatment, bacterial cells were washed thrice with buffer (10 mM Tris, pH 7.4) and resuspended in the same buffer to obtain 10^7 CFU/mL bacterial suspensions. Test peptides (8a and 8b) and the standard antibiotics (daptomycin and polymyxin B) at MIC and 4 × MIC were incubated with bacterial suspension for 1 h. Following the treatment with test peptides, the cells were pelleted by centrifugation at 3000g for 15 min in a microcentrifuge. The supernatant was decanted, and the cells were washed with PBS several times and then incubated with PI ([…]) in the dark for 15 min at 37 °C. FACS analysis of the stained bacterial cells was performed using a FACscan flow cytometer (BD Accuri C6, BD Biosciences, California, USA), and data were analyzed by using Cell Quest software.
# [12] = 10^6 CFU/mL, highest MIC of three independent experiments in triplicate
smiles,measurement,setting,value
"CC[C@H](C)CCCCC(=O)N[C@@H](CCN)C(=O)N[C@H](C(=O)N[C@@H](CCN)C(=O)N[C@H]1CCNC(=O)[C@H]([C@@H](C)O)NC(=O)[C@H](CCN)NC(=O)[C@H](CCN)NC(=O)[C@H](CC(C)C)NC(=O)[C@@H](Cc2ccccc2)NC(=O)[C@H](CCN)NC1=O)[C@@H](C)O [polymyxin B, reference compound] (X1-[Dab]T[Dab][Dab][Dab][dF]L[Dab][Dab]T; lactam 4-C (inferred); N-terminus assumed)","MIC, K. pneumoniae (ATCCBAA-1705)",[1]; [12],0.7 µg/mL
same,"MIC, K. pneumoniae (ATCCBAA-1705)",[1]; value in parentheses (μM),0.58 µM
same,time to complete eradication of E. coli cells at 4 × MIC,[2],2.5 h
same,"MIC, K. pneumonia (ATCC BAA-2470)",[3],1.5 µg/mL
same,"MIC, E. coli (ATCC BAA-2452)",[4],0.7 µg/mL
same,"MIC, E. coli (ATCC 25922), Control","[5]; MH media without salt ions or serum, three independent experiments in triplicate",0.7 µg/mL
same,"MIC, E. coli (ATCC 25922)",[5]; [12],0.7 µg/mL
same,"MIC, E. coli (ATCC 25922), MgCl2","[5]; media with 1 mM MgCl2, three independent experiments in triplicate",1.5 µg/mL
same,"MIC, E. coli (ATCC 25922), CaCl2","[5]; media with 2 mM CaCl2, three independent experiments in triplicate",0.7 µg/mL
same,"MIC, E. coli (ATCC 25922), KCl","[5]; media with 4.5 mM KCl, three independent experiments in triplicate",0.7 µg/mL
same,"MIC, E. coli (ATCC 25922), NH4Cl","[5]; media with 6 mM NH4Cl, three independent experiments in triplicate",0.7 µg/mL
same,"MIC, E. coli (ATCC 25922), NaCl","[5]; media with 150 mM NaCl, three independent experiments in triplicate",0.7 µg/mL
same,"MIC, E. coli (ATCC 25922), FBS (25%)","[5]; media with 25% fetal bovine serum, three independent experiments in triplicate",3.1 µg/mL
same,"MIC, E. coli (ATCC 25922)",[5]; value in parentheses (μM),0.58 µM
same,"MIC, P. aeruginosa (ATCC BAA-1744)",[6],0.7 µg/mL
same,"MIC, A. baumannii (ATCC BAA1605)",[7],0.7 µg/mL
same,"MIC, P. aeruginosa (ATCC 10145)",[8],0.7 µg/mL
same,"MIC, Klebsiella pneumonia (ATCC 13883)",[9],6.2 µg/mL
same,"MIC, P. aeruginosa (ATCC 27883)",[10]; [12],1.5 µg/mL
same,"MIC, P. aeruginosa (ATCC 27883)",[10]; value in parentheses (μM),1.25 µM
same,PI-stained population of E. coli cells,[11],did not significantly increase
